Reference: PMC9721423, “Novel benzo chromene derivatives: design, synthesis, molecular docking, cell cycle arrest, and apoptosis induction in human acute myeloid leukemia HL-60 cells” (Journal of Enzyme Inhibition and Medicinal Chemistry, 2022)
Like-named read-outs stand apart in the source and are kept apart here.

Assays:
Assay in all cases: cells
Design in all cases: species or system NCI-60 human tumour cell lines; NCI-60 five-dose growth inhibition screen, sulforhodamine B protein stain
HT29 = conditions: Homo sapiens, HT-29, 48 h
Protocol: (§1) All the newly synthesised 28 compounds were selected for single-dose testing. NCI60 single-dose testing is performed in all 60 cell lines according to the reported assay (National Cancer Institute, https://dtp.cancer.gov/) (National Cancer Institute https://dtp.cancer.gov/discovery_development/nci-60/), compounds were dissolved in DMSO: glycerol […] and are stored in a −70 °C freezer. The prepared compounds were added at single concentration of 1 0^−5 M and the culture was incubated for 48 h. End point determinations were made with a protein binding dye, sulforhodamine B (SRB). The human tumour cell lines were derived from nine different cancer types: leukaemia, melanoma, lung, colon, central nervous system (CNS), ovarian, renal, prostate, and breast cancers. Dose–response curves for these compounds were created by plotting the percentage growth (PGs or % growth) against log10 of the corresponding concentration for every cell line. Three response parameters, GI50 (Median Growth Inhibitory Concentration), TGI (Total Growth Inhibitory Concentration), and LC50 (Median Lethal Concentration) were calculated[54] (National Cancer Institute, https://dtp.cancer.gov/discovery_development/nci-60/) (National Cancer Institute, https://dtp.cancer.gov/)[55] for compounds 5a and 6a. […] Furthermore, the average sensitivity of all cell lines towards the compound is termed as the full panel mean graph midpoints (MG-MID). The ratio obtained by dividing the full panel mean graph midpoints (MG-MID) concentration by the individual subpanel MG-MID concentrations (obtained as the average sensitivity of all cell lines of a particular subpanel towards the test compound) is considered a criterion for the compound selectivity towards the corresponding cell line. Ratios greater than 6 indicate high selectivity while ratios between 3 and 6 refer to moderate selectivity whereas compounds not meeting either of these criteria were rated non-selective[56].

OVCAR-3 = conditions: Homo sapiens, OVCAR-3, 48 h
Protocol: as §1

HCT-116 = conditions: Homo sapiens, HCT-116, 48 h
Protocol: as §1

NCI-H226 = conditions: Homo sapiens, NCI-H226, 48 h
Protocol: as §1

LOX IMVI = conditions: Homo sapiens, LOX IMVI, 48 h
Protocol: as §1

UACC-62 = conditions: Homo sapiens, UACC-62, 48 h
Protocol: as §1

SN12C = conditions: Homo sapiens, SN12C, 48 h
Protocol: as §1

PC-3 = conditions: Homo sapiens, PC-3, 48 h
Protocol: as §1

SW-620 = conditions: Homo sapiens, SW-620, 48 h
Protocol: as §1

K-562 = conditions: Homo sapiens, K562, 48 h
Protocol: as §1

HCC-2998 = conditions: Homo sapiens, HCC 2998, 48 h
Protocol: as §1

SNB-19 = conditions: Homo sapiens, SNB-19, 48 h
Protocol: as §1

NCI-H522 = conditions: Homo sapiens, NCI-H522, 48 h
Protocol: as §1

ACHN = conditions: Homo sapiens, ACHN, 48 h
Protocol: as §1

HOP-62 = conditions: Homo sapiens, HOP-62, 48 h
Protocol: as §1

KM12 = conditions: Homo sapiens, KM12, 48 h
Protocol: as §1

MDA-MB-435 = conditions: Homo sapiens, MDA-MB-435, 48 h
Protocol: as §1

Q: Which results are given for `N=C(NO)C1=C(N)Oc2c(ccc3ccccc23)C1c1ccccc1` (stereo not shown) [5a, 2-Amino-4-phenyl-N-hydroxy-4H-benzo[h]chromene-3-carboxamidine]?
A: GI50 (HT29; read-out: GI50 5a): 480 nM; GI50 (OVCAR-3; read-out: GI50 5a): 180 nM; GI50 (HCT-116; read-out: GI50 5a): 410 nM; GI50 (NCI-H226; read-out: GI50 5a): 8.01 µM; GI50 (LOX IMVI; read-out: GI50 5a): 540 nM; GI50 (UACC-62; read-out: GI50 5a): 50 nM; GI50 (SN12C; read-out: GI50 5a): 530 nM; GI50 (PC-3; read-out: GI50 5a): 230 nM; GI50 (SW-620; read-out: GI50 5a): 170 nM; GI50 (K-562; read-out: GI50 5a): 60 nM; GI50 (HCC-2998; read-out: GI50 5a): 370 nM; GI50 (SNB-19; read-out: GI50 5a): 490 nM; GI50 (NCI-H522; read-out: GI50 5a): 60 nM; GI50 (ACHN; read-out: GI50 5a): 370 nM; GI50 (HOP-62; read-out: GI50 5a): 380 nM; GI50 (KM12; read-out: GI50 5a): 220 nM; GI50 (MDA-MB-435; read-out: GI50 5a): 30 nM

Q: How did the GI50 (HT29; read-out: GI50 6a) turn out when `CC(=O)NC1=C(C#N)C(c2ccccc2)c2ccc3ccccc3c2O1` (stereo not shown) [6a, N-(3-Cyano-4-phenyl-4H-benzo[h]chromen-2-yl)acetamide] was run?
A: The GI50 was 380 nM.

Q: What about the GI50 (OVCAR-3; read-out: GI50 6a) of the same compound?
A: Its GI50 is 340 nM.

Q: What about the GI50 (HCT-116; read-out: GI50 6a) of the same compound?
A: Its GI50 is 430 nM.

Q: And the GI50 (NCI-H226; read-out: GI50 6a)?
A: Its GI50 is 1.85 µM.

Q: What about the GI50 (LOX IMVI; read-out: GI50 6a) of the same compound?
A: The GI50 was 600 nM.

Q: And the GI50 (UACC-62; read-out: GI50 6a)?
A: Its GI50 is 710 nM.

Q: And the GI50 (SN12C; read-out: GI50 6a)?
A: Its GI50 is 700 nM.

Q: And the GI50 (PC-3; read-out: GI50 6a)?
A: The GI50 was 460 nM.

Q: And the GI50 (SW-620; read-out: GI50 6a)?
A: The GI50 was 410 nM.

Q: What about the GI50 (K-562; read-out: GI50 6a) of the same compound?
A: Its GI50 is 320 nM.

Q: What about the GI50 (HCC-2998; read-out: GI50 6a) of the same compound?
A: Its GI50 is 1430 nM.

Q: And the GI50 (SNB-19; read-out: GI50 6a)?
A: The GI50 was 780 nM.

Q: And the GI50 (NCI-H522; read-out: GI50 6a)?
A: The GI50 was 220 nM.

Q: What about the GI50 (ACHN; read-out: GI50 6a) of the same compound?
A: The GI50 was 550 nM.

Q: And the GI50 (HOP-62; read-out: GI50 6a)?
A: The GI50 was 690 nM.

Q: What about the GI50 (KM12; read-out: GI50 6a) of the same compound?
A: The GI50 was 430 nM.

Q: What about the GI50 (MDA-MB-435; read-out: GI50 6a) of the same compound?
A: The GI50 was 230 nM.
